Reference: patent US20250041429A1, “COMPOUND HAVING BTK PROTEIN DEGRADATION ACTIVITY, AND MEDICAL USES THEREOF” (UBIX THERAPEUTICS, INC., priority 2021, published 2025)

Molecular target: T1, BTK protein (Homo sapiens, UniProt Q06187)
T1 construct: endogenous in cells; host or cells: TMD-8 cells
Experiment: Measurement of BTK protein degradation ability in TMD-8 cells (Western blotting)
Assay type: cell-based
Details: harvested after 24 hours; for BTK degradation (%) 10 nM: compound 10 nM; for BTK degradation (%) 100 nM: compound 100 nM; for BTK degradation (%) 1 nM: compound 1 nM
Protocol: TMD-8, RAMOS, or 293T BTK MUT (C481S) cells were treated with the synthesized compounds, and then the amount of BTK protein present in the cells was measured using Western blotting detection. The protocol for the experiment conducted using TMD-8 cells was as follows:
[Culture] TMD-8 cells were resuspended in RPMI1640 MEDIUM (Hyclone, SH30027.01), 10% FBS (Hyclone, SV30207.02), and 1% Penicillin-streptomycin (Welgene, LS 202-02) media, and 1 mL of this suspension was seeded in a 12-well plate at a cell concentration of 1×10^6/mL.
[Compound treatment] The 12-well plate was treated as follows: The 10 mM stock was serially diluted 1/10 with DMSO (3 μL+27 μL DMSO), and cells were treated with compounds at final concentrations of 0.1, 1, 10 μM or 0.0001, 0.001, 0.01, 0.1 μM, and harvested after 24 hours. In the negative control group, DMSO diluted 1/10 was added to the media. (3 μL DMSO+27 μL media)
[Harvest] Each well was pipetted with a 1 mL pipette, collected in a 1.5 mL microtube, and centrifuged (500 g, 5 min, 4° C.). After removing the supernatant, it was washed with PBS and centrifuged again (500 g, 5 min, 4° C.). The supernatant was removed and the pellet was collected.
[Cell lysis and Sample preparation] lysis buffer was prepared as follows: RIPA buffer (Biosesang, RC2038-050-00), 0.5 mM PMSF (SIGMA, P7626) and 1× Protease/Phosphatase Inhibitor (Cell signaling, 5872S) were added at 60-70 μL per well and left on ice for 30 minutes. (Vortexing at 0 and 30 minutes, respectively), followed by sonication (10 seconds pulse, 30 seconds rest, 5 cycles, 70% amplification) and centrifuge (15000 g, 15 min, 4° C.). Only the supernatant was collected and transferred to a new microtube. The samples were diluted by ½ with RIPA buffer in a 96-well plate. 200 μL of the mixture A:B=50:1 of the BCA Protein Assay Kit (iNtRON, 21071) was added each, stayed at 37° C. for 30 minutes, and cooled for 10 minutes. Afterwards, absorbance was measured at 562 nm using BioTek's SYNERGY H1 microplate reader. After making a sample by quantifying the protein using the measured value, it was boiled at 70° C. for 10 minutes. The sample buffer used at this time was a mixture of NuPAGE or Bolt 4× sample buffer (Invitrogen) and each 10× sample reducing agent according to the gel to be used. RIPA buffer was used for protein dilution.
[Western blotting detection method] The same amount of sample was loaded on NuPAGE or Bolt Bis-tris 4-12% gradient gel and run (200 V, 35 minutes). It was transferred to a […] NC membrane using Trans-blot Turbo (BIO-RAD) (1.3 A constant, 25 V limit, 15 minutes). For blocking, skim milk or Intercept Blocking Buffer (LI-COR, 927-60001): 0.1% TBST=1:1 was used at room temperature for 1 hour. Anti BTK Rabbit (1:1,000 in 5% skim milk/0.2% TBST, size: 77 kDa, Cell signaling Technology) was reacted at 4° C. for 16 hours or at room temperature for 2 hours. Anti GAPDH Rabbit (1:10,000 in 5% BSA/0.2% TBST, size: 36 kDa, GENETEX) and Anti β-actin mouse (1:10,000 in 5% BSA/0.2% TBST, RT, size: 43 kDa, GENETEX) were reacted at room temperature for 1 hour or 3 hours. The samples were washed 3 times with 0.5% TBST for 5 minutes each. Secondary antibodies, Anti-Rabbit IgG (1:5,000 in 5% Skim milk/TBST, CST), IRDye® 800CW Goat anti-Rabbit IgG Secondary Antibody (1:10,000 in 5% skim/TBST, RT 45 min), IRDye® 680RD Goat anti-Mouse IgG Secondary Antibody (1:10,000 in 5% skim/TBST, RT 45 min) were added depending on each sample and reacted for 45 minutes on a rocker at room temperature. The samples were washed 5 times with 0.5% TBST for 5 minutes each and detected with LI-COR's Odyssey. At this time, BTK was detected using SuperSignal West Pico PLUS Chemiluminescent Substrate or SuperSignal West femto Maximum Sensitivity Substrate, and house-keeping genes were detected as is.

T1 sequence (Q06187 whole entry): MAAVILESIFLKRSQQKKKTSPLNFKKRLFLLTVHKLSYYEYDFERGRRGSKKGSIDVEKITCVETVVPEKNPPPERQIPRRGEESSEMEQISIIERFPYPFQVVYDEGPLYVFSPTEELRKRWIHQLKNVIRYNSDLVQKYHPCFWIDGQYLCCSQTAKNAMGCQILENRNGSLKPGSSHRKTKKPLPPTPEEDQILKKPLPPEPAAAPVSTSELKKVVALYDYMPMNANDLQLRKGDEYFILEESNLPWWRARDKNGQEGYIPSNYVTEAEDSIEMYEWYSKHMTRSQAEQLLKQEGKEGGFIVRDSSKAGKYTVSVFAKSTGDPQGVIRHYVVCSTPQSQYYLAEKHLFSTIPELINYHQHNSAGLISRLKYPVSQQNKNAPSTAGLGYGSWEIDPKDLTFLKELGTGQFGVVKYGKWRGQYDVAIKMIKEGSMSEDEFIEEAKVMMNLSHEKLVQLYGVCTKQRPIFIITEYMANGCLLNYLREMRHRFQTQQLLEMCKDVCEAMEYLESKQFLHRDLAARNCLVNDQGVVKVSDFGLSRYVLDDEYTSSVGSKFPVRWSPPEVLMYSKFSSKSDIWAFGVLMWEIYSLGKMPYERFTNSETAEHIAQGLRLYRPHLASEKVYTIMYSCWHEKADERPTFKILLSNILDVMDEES

SMILES | BTK degradation (%) 10 nM | BTK degradation (%) 100 nM | BTK degradation (%) 1 nM
Cc1cc(-c2ccnc(Nc3ccc4c(c3)CN(CC3CCN(c5ccc6c(c5)C(=O)N(C5CCC(=O)NC5=O)C6=O)CC3)CC4)n2)ccc1CNC(=O)c1cn(C(C)(C)C)nn1 (stereo not drawn) [Example 3, 1-(tert-butyl)-N-(4-(2-((2-((1-(2-(2,6-dioxopiperidin-3-yl)-1,3-dioxoisoindolin-5-yl)piperidin-4-yl)methyl)-1,2,3,4-tetrahydroisoquinolin-7-yl)amino)pyrimidin-4-yl)-2-methylbenzyl)-1H-1,2,3-triazole-4-carboxamide] | 84% | 93% | –
Cc1c(NC(=O)N2CC(OC(C)C)C2)cc(F)cc1-c1ccnc(Nc2ccc3c(c2)CN(CC2CCN(c4ccc5c(c4)C(=O)N(C4CCC(=O)NC4=O)C5=O)CC2)CC3)n1 (stereo not drawn) [Example 4, N-(3-(2-((2-((1-(2-(2,6-dioxopiperidin-3-yl)-1,3-dioxoisoindolin-5-yl)piperidin-4-yl)methyl)-1,2,3,4-tetrahydroisoquinolin-7-yl)amino)pyrimidin-4-yl)-5-fluoro-2-methylphenyl)-3-isopropoxyazetidine-1-carboxamide] | −3.5% | 29% | –
Cc1c(NC(=O)c2cnn(C(C)(C)C)c2)cc(F)cc1-c1ccnc(Nc2ccc3c(c2)CN(CC2CCN(c4ccc5c(c4)C(=O)N(C4CCC(=O)NC4=O)C5=O)CC2)CC3)n1 (stereo not drawn) [Example 5, 1-(tert-butyl)-N-(3-(2-((2-((1-(2-(2,6-dioxopiperidin-3-yl)-1,3-dioxoisoindolin-5-yl)piperidin-4-yl)methyl)-1,2,3,4-tetrahydroisoquinolin-7-yl)amino)pyrimidin-4-yl)-5-fluoro-2-methylphenyl)-1H-pyrazole-4-carboxamide] | −12% | −7% | –
Cc1c(NC(=O)c2cn(C(C)(C)C)nn2)cc(F)cc1-c1ccnc(Nc2ccc3c(c2)CN(CC2CCN(c4ccc5c(c4)C(=O)N(C4CCC(=O)NC4=O)C5=O)CC2)CC3)n1 (stereo not drawn) [Example 6, 1-(tert-butyl)-N-(3-(2-((2-((1-(2-(2,6-dioxopiperidin-3-yl)-1,3-dioxoisoindolin-5-yl)piperidin-4-yl)methyl)-1,2,3,4-tetrahydroisoquinolin-7-yl)amino)pyrimidin-4-yl)-5-fluoro-2-methylphenyl)-1H-1,2,3-triazole-4-carboxamide] | −2.5% | 10% | –
Cc1cc(-c2ccnc(Nc3ccc(N4CCN(CC5CCN(c6ccc7c(c6)C(=O)N(C6CCC(=O)NC6=O)C7=O)CC5)CC4)cc3)n2)ccc1CNC(=O)N1CC(OC(C)C)C1 (stereo not drawn) [Example 7, N-(4-(2-((4-(4-((1-(2-(2,6-dioxopiperidin-3-yl)-1,3-dioxoisoindolin-5-yl)piperidin-4-yl)methyl)piperazin-1-yl)phenyl)amino)pyrimidin-4-yl)-2-methylbenzyl)-3-isopropoxyazetidine-1-carboxamide] | 90% | 98.5% | –
Cc1cc(-c2ccnc(Nc3ccc(N4CCN(CC5CCN(c6ccc7c(c6)C(=O)N(C6CCC(=O)NC6=O)C7=O)CC5)CC4)cc3)n2)ccc1CNC(=O)c1cnn(C(C)(C)C)c1 (stereo not drawn) [Example 8, 1-(tert-butyl)-N-(4-(2-((4-(4-((1-(2-(2,6-dioxopiperidin-3-yl)-1,3-dioxoisoindolin-5-yl)piperidin-4-yl)methyl)piperazin-1-yl)phenyl)amino)pyrimidin-4-yl)-2-methylbenzyl)-1H-pyrazole-4-carboxamide] | 89.5% | 97.5% | –
Cc1cc(-c2ccnc(Nc3ccc(N4CCN(CC5CCN(c6ccc7c(n6)CN(C6CCC(=O)NC6=O)C7=O)CC5)CC4)cc3)n2)ccc1CNC(=O)N1CC(OC(C)C)C1 (stereo not drawn) [Example 10, N-(4-(2-((4-(4-((1-(6-(2,6-dioxopiperidin-3-yl)-5-oxo-6,7-dihydro-5H-pyrrolo[3,4-b]pyridin-2-yl)piperidin-4-yl)methyl)piperazin-1-yl)phenyl)amino)pyrimidin-4-yl)-2-methylbenzyl)-3-isopropoxyazetidine-1-carboxamide] | 94.5% | 98.5% | 56%

Continued, values first:

BTK degradation (%) 10 nM | BTK degradation (%) 100 nM | BTK degradation (%) 1 nM | SMILES
92% | 97.5% | – | Cc1cc(-c2ccnc(Nc3ccc4c(c3)CN(CC3CCN(c5ccc6c(c5)C(=O)N(C5CCC(=O)NC5=O)C6=O)CC3)CC4)n2)ccc1CNC(=O)N1CC(OC(C)C)C1 (stereo not drawn) [Example 1, N-(4-(2-((2-((1-(2-(2,6-dioxopiperidin-3-yl)-1,3-dioxoisoindolin-5-yl)piperidin-4-yl)methyl)-1,2,3,4-tetrahydroisoquinolin-7-yl)amino)pyrimidin-4-yl)-2-methylbenzyl)-3-isopropoxyazetidine-1-carboxamide]
84.5% | 94% | – | Cc1cc(-c2ccnc(Nc3ccc4c(c3)CN(CC3CCN(c5ccc6c(c5)C(=O)N(C5CCC(=O)NC5=O)C6=O)CC3)CC4)n2)ccc1CNC(=O)c1cnn(C(C)(C)C)c1 (stereo not drawn) [Example 2, 1-(tert-butyl)-N-(4-(2-((2-((1-(2-(2,6-dioxopiperidin-3-yl)-1,3-dioxoisoindolin-5-yl)piperidin-4-yl)methyl)-1,2,3,4-tetrahydroisoquinolin-7-yl)amino)pyrimidin-4-yl)-2-methylbenzyl)-1H-pyrazole-4-carboxamide]
76.5% | 96.5% | – | Cc1cc(-c2ccnc(Nc3ccc(N4CCN(CC5CCN(c6ccc7c(c6)C(=O)N(C6CCC(=O)NC6=O)C7=O)CC5)CC4)cc3)n2)ccc1CNC(=O)c1cn(C(C)(C)C)nn1 (stereo not drawn) [Example 9, 1-(tert-butyl)-N-(4-(2-((4-(4-((1-(2-(2,6-dioxopiperidin-3-yl)-1,3-dioxoisoindolin-5-yl)piperidin-4-yl)methyl)piperazin-1-yl)phenyl)amino)pyrimidin-4-yl)-2-methylbenzyl)-1H-1,2,3-triazole-4-carboxamide]
93.5% | 98.5% | 60% | Cc1cc(-c2ccnc(Nc3ccc(N4CCN(CC5CN(c6ccc7c(c6)C(=O)N(C6CCC(=O)NC6=O)C7=O)C5)CC4)cc3)n2)ccc1CNC(=O)N1CC(OC(C)C)C1 (stereo not drawn) [Example 11, N-(4-(2-((4-(4-((1-(2-(2,6-dioxopiperidin-3-yl)-1,3-dioxoisoindolin-5-yl)azetidin-3-yl)methyl)piperazin-1-yl)phenyl)amino)pyrimidin-4-yl)-2-methylbenzyl)-3-isopropoxyazetidine-1-carboxamide]
84.5% | 98.5% | 23.5% | Cc1cc(-c2ccnc(Nc3ccc(N4CCN(CC5CCN(c6cc7c(cc6F)C(=O)N(C6CCC(=O)NC6=O)C7=O)CC5)CC4)cc3)n2)ccc1CNC(=O)N1CC(OC(C)C)C1 (stereo not drawn) [Example 12, N-(4-(2-((4-(4-((1-(2-(2,6-dioxopiperidin-3-yl)-6-fluoro-1,3-dioxoisoindolin-5-yl)piperidin-4-yl)methyl)piperazin-1-yl)phenyl)amino)pyrimidin-4-yl)-2-methylbenzyl)-3-isopropoxyazetidine-1-carboxamide]
